Where a name gives a salt, the structure may show the parent alone.
Tests used:
α-adrenergic receptor [1] = target: T1, α-adrenergic receptor (Rattus norvegicus, UniProt P43140); assay: isolated rat seminal vesicle assay, in vitro α-adrenergic receptor blocking effect against norepinephrine; details: relative to prazosin; isolated rat seminal vesicle, test compound 10 nanograms/ml, norepinephrine agonist
T1 construct: Seminal vesicles were removed and transferred to a shallow disk containing modified Tyrode's solution; from tissue; host or cells: isolated seminal vesicle of male Long Evans rats
T1 sequence (P43140 1-466): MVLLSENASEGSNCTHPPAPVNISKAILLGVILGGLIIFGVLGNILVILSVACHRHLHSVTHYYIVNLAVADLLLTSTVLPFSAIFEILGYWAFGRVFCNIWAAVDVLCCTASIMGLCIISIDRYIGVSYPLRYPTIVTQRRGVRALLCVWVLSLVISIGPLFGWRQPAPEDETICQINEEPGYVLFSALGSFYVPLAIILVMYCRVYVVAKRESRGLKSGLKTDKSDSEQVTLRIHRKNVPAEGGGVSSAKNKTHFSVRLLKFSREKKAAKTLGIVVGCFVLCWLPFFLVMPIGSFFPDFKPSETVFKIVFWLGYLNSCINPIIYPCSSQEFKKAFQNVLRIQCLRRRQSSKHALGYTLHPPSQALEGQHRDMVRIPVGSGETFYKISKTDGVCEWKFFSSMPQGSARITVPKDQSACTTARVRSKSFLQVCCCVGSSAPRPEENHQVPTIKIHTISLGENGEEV
Protocol: (§1) In Table 1, antihypertensive activity was determined by oral administration to spontaneous hypertensive rats, the in vitro α-adrenergic receptor blocking effect was determined according to the following test method.
(§2) Dungan et al, Int. […] Lietch et al, Brit.
(§3) Male Long Evans rats weighing approximately 300 g. were sacrificed by a sharp blow on the head. Seminal vesicles were removed and transferred to a shallow disk containing modified Tyrode's solution. The vesicles were emptied of their contents by squeezing them gently with a pair of forceps. Silk thread (4-0) was attached to both ends of the vesicle and it was suspended in a 20 ml. muscle chamber containing modified oxygenated Tyrode's solution (g./liter: NaCl 8, KCl 0.2, CaCl2 0.26, NaHCO3 1, Na2 HPO4 0.0575, glucose 0.5 and MgCl2 0.02). The bathing fluid was maintained at 37° C. with a thermostatically controlled isolated organ tissue bath. Contractions were recorded isometrically by means of a force displacement transducer and recordings were made with a Beckman RP Dynograph. Norepinephrine (NE) was added to the muscle chamber in volumes ranging from 0.1 to 0.4 ml. with a one ml. syringe attached to a 3 inch 20 gauge needle. NE and test compounds were dissolved in deionized water.
(§4) NE response curves were obtained alone and in the presence of test compounds. NE was allowed to remain in contact with the strip until a maximal contraction was obtained. The strip was then washed with the perfusion fluid for 15-30 seconds and the preparation was allowed to return to base line before a subsequent dose of NE was given. Increasing amounts of NE were injected into the bath in the same manner until a complete dose response was obtained.
(§5) The seminal vesicles used to obtain the control NE dose response were discarded and new preparations were placed in the tissue bath for evaluation of the test compound. The test compound was added directly to the perfursion fluid (10 nanograms/ml.) and the strips were allowed to remain in contact with the bathing media for at least 10 minutes before the NE dose response was determined.
(§6) ED50 values for NE were obtained by regression analysis as described by Finney, Probit. Analysis, 2d Ed., Cambridge (1964). A minimum of 4 strips and at least 4 doses were employed to calculate the regression lines. The ED50 value is defined as the concentration of NE which produces a contraction equal to 50% of the maximal contraction.

α-adrenergic receptor [2] = assay: as above; details: antihypertensive activity ratio (A) over α-adrenergic blocking activity ratio (B)
Protocol: as §1, §2, §3, §4, §5, §6

[3] = tested on: spontaneous hypertensive rats; assay: antihypertensive activity by oral administration to spontaneous hypertensive rats; type: in vivo, rat; details: for ED50 / Antihypertensive Activity Ratio (A): oral, spontaneous hypertensive rat; for ED50: read-out: Antihypertensive ED50 mm Hg; for Antihypertensive Activity Ratio (A): relative to prazosin
Protocol: as §1

humans = details: cited from earlier work
patients = details: human, in vivo; cited from earlier work

CCOC(=O)Nc1snnc1C(=O)N1CCN(c2nc(N)c3cc(OC)c(OC)cc3n2)CC1 [Example 1, 4-Amino-6,7-dimethoxy-2-[4-(5-ethoxycarbonylamino-1,2,3-thiadiazole-4-carbonyl)-piperazin-1-vl]-quinazoline Hydrochloride]
α-Adr. Bl. Activity Ratio (B) (α-adrenergic receptor [1]): 0.15 | Ratio A/B (α-adrenergic receptor [2]): 5.0 | reduction in systolic blood pressure ([3]; 24 hours after oral dose of 10 mg./kg., spontaneous hypertensive rats): 22% | ED50 [3]: 2.8 mg/kg | Antihypertensive Activity Ratio (A) [3]: 0.75

COc1cc2nc(N3CCN(C(=O)c4csnn4)CC3)nc(N)c2cc1OC.Cl [Example 2, 4Amino-6,7-dimethoxy-2-[4-(1,2,3-thiadiazole-4-carbonyl)piperazin-1-yl]quinazoline Hydrochloride]
α-Adr. Bl. Activity Ratio (B) (α-adrenergic receptor [1]): 0.27 | Ratio A/B (α-adrenergic receptor [2]): 2.0 | ED50 [3]: 4 mg/kg | Antihypertensive Activity Ratio (A) [3]: 0.53

COc1cc2nc(N3CCN(C(=O)c4cnns4)CC3)nc(N)c2cc1OC.Cl [Example 3, 4-Amino-6,7-dimethoxy-2-[4-(1,2,3-thiadiazole-5-carbonyl)piperazin-1-yl]quinazoline Hydrochloride]
α-Adr. Bl. Activity Ratio (B) (α-adrenergic receptor [1]): 0.23 | Ratio A/B (α-adrenergic receptor [2]): 2.3 | ED50 [3]: 4 mg/kg | Antihypertensive Activity Ratio (A) [3]: 0.53

COc1cc2c(N)nc(N3CCN(C(=O)OCC(C)(C)O)CC3)nc2c(OC)c1OC [Trimazosin]
antihypertensive strength compared to prazosin (in words) (humans; clinical daily dose approximately 150 to 500 mg. for trimazosin, 1.5 to 15 mg. for prazosin): much weaker drug than prazosin | antihypertensive activity in humans (in words) (humans; humans): active in humans as an antihypertensive agent

COc1cc2nc(N3CCN(C(=O)c4ccco4)CC3)nc(N)c2cc1OC [prazosin, 2-[4-(2-furoyl)-piperazin-1-yl]-4-amino-6,7-dimethoxyquinazoline, reference compound]
adverse reactions, recent reports (in words) (patients): severe adverse reactions of postural hypotension in some patients | ED50 [3]: 2.1 mg/kg
